Like-named read-outs stand apart in the source and are kept apart here.
Assays:
[1] = molecular target: T1, recombinant Axl tyrosine kinase (Homo sapiens, UniProt P30530); assay: In vitro Axl kinase assay (AlphaScreen), Test (a); format: biochemical; conditions: for IC50: Test (a), read-out: IC50 versus Axl tyrosine kinase; for % Axl tyrosine kinase inhibition at 1 μM concentration / inhibition at 1 µM: test compound at 1 μM, first value quoted; for inhibition at 1 µM: read-out: % Axl tyrosine kinase inhibition at 1 μM concentration; for % Axl tyrosine kinase inhibition at 1 μM concentration (second value, †): mean calculated from a larger number of replicates than the first value
T1 construct: encompassing amino acids 473 to 894 of Axl; GST (N); made in house; host or cells: SF126 insect cells
T1 sequence (P30530 473-894): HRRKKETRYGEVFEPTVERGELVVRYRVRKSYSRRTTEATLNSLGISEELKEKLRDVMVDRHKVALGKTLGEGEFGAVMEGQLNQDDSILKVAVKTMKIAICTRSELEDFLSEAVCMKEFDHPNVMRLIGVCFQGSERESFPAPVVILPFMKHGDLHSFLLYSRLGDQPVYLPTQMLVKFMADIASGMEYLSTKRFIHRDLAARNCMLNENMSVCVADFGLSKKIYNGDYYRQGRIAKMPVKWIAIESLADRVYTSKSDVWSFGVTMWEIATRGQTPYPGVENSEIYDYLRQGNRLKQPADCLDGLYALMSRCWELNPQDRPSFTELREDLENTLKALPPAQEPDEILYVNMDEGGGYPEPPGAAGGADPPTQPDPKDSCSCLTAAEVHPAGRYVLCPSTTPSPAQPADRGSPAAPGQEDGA

[2] = molecular target: T2, Axl expressed on NCI H1299 lung large cell carcinoma cells (Homo sapiens, UniProt P30530); assay: Cellular phospho-Axl ELISA assay, Test (b); conditions: read-out: IC50 versus cellular phospho-Axl, Test (b)
T2 sequence (P30530 26-894): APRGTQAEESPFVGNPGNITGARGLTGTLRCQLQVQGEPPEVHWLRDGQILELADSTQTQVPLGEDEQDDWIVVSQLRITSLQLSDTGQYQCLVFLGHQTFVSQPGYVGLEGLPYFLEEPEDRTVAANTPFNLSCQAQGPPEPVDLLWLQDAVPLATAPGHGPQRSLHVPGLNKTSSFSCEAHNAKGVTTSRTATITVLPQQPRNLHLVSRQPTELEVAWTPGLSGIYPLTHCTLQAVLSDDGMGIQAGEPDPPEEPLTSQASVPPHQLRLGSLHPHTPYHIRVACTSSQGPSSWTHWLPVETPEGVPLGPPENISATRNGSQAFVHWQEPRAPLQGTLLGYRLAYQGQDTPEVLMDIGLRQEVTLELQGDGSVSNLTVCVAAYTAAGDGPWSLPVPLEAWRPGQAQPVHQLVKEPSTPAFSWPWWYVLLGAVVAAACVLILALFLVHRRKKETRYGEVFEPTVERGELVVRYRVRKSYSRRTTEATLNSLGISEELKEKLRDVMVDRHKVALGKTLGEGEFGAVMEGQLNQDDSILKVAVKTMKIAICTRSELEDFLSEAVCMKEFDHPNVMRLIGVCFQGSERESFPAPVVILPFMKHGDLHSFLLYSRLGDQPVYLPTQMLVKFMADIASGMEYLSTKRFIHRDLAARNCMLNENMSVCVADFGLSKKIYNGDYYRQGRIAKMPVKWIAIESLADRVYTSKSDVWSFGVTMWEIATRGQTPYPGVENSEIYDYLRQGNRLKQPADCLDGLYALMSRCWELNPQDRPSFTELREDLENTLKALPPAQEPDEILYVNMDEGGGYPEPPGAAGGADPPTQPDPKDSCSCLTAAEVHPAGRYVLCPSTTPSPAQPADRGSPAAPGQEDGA
Procedure: This assay uses a conventional ELISA method to determine the ability of test compounds to inhibit phosphorylation of tyrosine residues in Axl.
100 μl Aliquots were seeded into each of the wells of a clear 96 well tissue culture plate and the plates were incubated overnight at 37° C. with 5% CO2 to allow the cells to adhere to the wells.
Aliquots of each compound concentration were added to the cells in each well using the Echo 550 (Labcyte Inc., Sunnyvale, Calif., US). Control cells received DMSO only. The cells were incubated for 2 hours at 37° C. with 5% CO2.
The resultant tissue culture plates were incubated on ice for 30 minutes to ensure full lysis.
The wells were washed 3 times with 250 μl per well of PBS containing 0.05% v/v Tween (PBS/T). The wells were treated with 3% w/v BSA in PBS at ambient temperature for 2 hours and subsequently washed 3 times with 250 μl per well of PBS/T.
50 μl Aliquots of the NCI H1299 cell lysates were added to the ELISA plates.
100 μl Aliquots of substrate solution were added to each of the wells and fluorescence was read on a Tecan Ultra plate reader (Tecan UK Ltd., Reading, Berkshire, UK).

Row | Structure (SMILES) | % Axl tyrosine kinase inhibition at 1 μM concentration [1] | also measured
1 | Nc1ncc(-c2ccc(C3CCNCC3)cc2)cc1-c1nc2ccccc2o1 [Example 2.18] | ^#99.8% | IC50 ([2]; footnotes of Table A): ~70 nM
2 | CN1CCC(n2cc(-c3cnc(N)c(-c4nc5ncc(F)cc5o4)c3)cn2)CC1 [Example 41.7] |  | IC50 ([2]; footnotes of Table A): ~234 nM
3 | CN1CCC(CNC(=O)c2ccc(-c3cnc(N)c(-c4nc5cccnc5o4)c3)cc2)CC1 [Example 45A.25] | 97.8% | 
4 | Nc1ncc(-c2cnn(CCO)c2)cc1-c1nc2ccccc2o1 [Example 28, 2-[4-[6-amino-5-(1,3-benzoxazol-2-yl)-3-pyridyl]pyrazol-1-yl]ethanol] |  | inhibition at 1 µM [1]: 99.3%
5 | COc1cc(-c2cnc(N)c(-c3nc4ncccc4o3)c2)ccc1OCCCN [Example 43C.27] | 99.4% | 
6 | Cc1c(-c2cnc(N)c(-c3nc4ccccc4o3)c2)cnn1C1CCNCC1 [Example 24, 3-(1,3-benzoxazol-2-yl)-5-[5-methyl-1-(4-piperidyl)pyrazol-4-yl]pyridin-2-amine] |  | inhibition at 1 µM [1]: 100%
7 | Nc1ncc(-c2ccc(C(=O)NCCN3CCNCC3)cc2)cc1-c1nc2cccnc2o1 [Example 45A.83] | 98.9% | 
8 | CN1CCC(n2cc(-c3cnc(N)c(-c4nc5c(F)cccc5o4)c3)cn2)CC1 [Example 6, 3-(4-Fluoro-1,3-benzoxazol-2-yl)-5-[1-(1-methyl-4-piperidyl)pyrazol-4-yl]pyridin-2-amine] |  | inhibition at 1 µM [1]: 99.9%
9 | CNC(=O)c1cccc(-c2cnc(N)c(-c3nc4ccccc4o3)c2)c1 [Example 2.17] | 68.9% | 
10 | C[N+]1([O-])CCC(n2cc(-c3cnc(N)c(-c4nc5ccccc5o4)c3)cn2)CC1 (stereo not drawn) [Example 12, 3-(1,3-Benzoxazol-2-yl)-5-[1-(1-methyl-1-oxido-piperidin-1-ium-4-yl)pyrazol-4-yl]pyridin-2-amine] |  | inhibition at 1 µM [1]: 90.6%
11 | CN(C)C(=O)CN1CCN(C(=O)c2ccc(-c3cnc(N)c(-c4nc5cccnc5o4)c3)cc2)CC1 [Example 45A.67] | 96.8% | 
12 | COc1cc(-c2cnc(N)c(-c3nc4ncccc4o3)c2)ccc1OCCN1CCNCC1 [Example 43C.25] | 99.5% | 
13 | Nc1ncc(-c2cccc(N3CCOCC3)c2)cc1-c1nc2cnccc2o1 [Example 8A.4] | 89.8% | % Axl tyrosine kinase inhibition at 1 μM concentration (second value, †) [1]: 86.6%
14 | N#CCc1ccc(-c2cnc(N)c(-c3nc4ccccc4o3)c2)cc1 [Example 2.51] | 93.1% | 
15 | CN1CCN(c2ccc(-c3cnc(N)c(-c4nc5ccccc5o4)c3)cn2)CC1 [Example 2.54] | 99.8% | 
16 | Nc1ncc(-c2ccc(OCCC3CCNCC3)cc2)cc1-c1nc2ncccc2o1 [Example 43B.35] | 95.9% | 
17 | COCc1nn(C2CCN(C(=O)CO)CC2)cc1-c1cnc(N)c(-c2nc3ccccc3o2)c1 [Example 66, 1-[4-[4-[6-amino-5-(1,3-benzoxazol-2-yl)-3-pyridyl]-3-(methoxymethyl)pyrazol-1-yl]-1-piperidyl]-2-hydroxy-ethanone] |  | IC50 [1]: ~0.6 nM; inhibition at 1 µM [1]: 100%

Row | Structure (SMILES) | % Axl tyrosine kinase inhibition at 1 μM concentration [1] | also measured
18 | COc1cc(-c2cnc(N)c(-c3nc4ncccc4o3)c2)ccc1OCCN(C)C [Example 43C.3] | 99.4% | 
19 | CN(C)c1cccc(-c2cnc(N)c(-c3nc4ccccc4o3)c2)c1 [Example 2.50] | 90.0% | 
20 | NC(=O)CCN1CCN(C(=O)c2ccc(-c3cnc(N)c(-c4nc5cccnc5o4)c3)cc2)CC1 [Example 45A.71] | 93.7% | 
21 | Nc1ncc(-c2ccc(C(=O)NC3CCCNC3)cc2)cc1-c1nc2cccnc2o1 (stereo not drawn) [Example 45A.84] | 99.1% | 
22 | Nc1ncc(-c2cccc(S(=O)(=O)N3CCOCC3)c2)cc1-c1nc2cnccc2o1 [Example 8A.13] | 71.3% | 
23 | Nc1ncc(-c2ccc(OC3CCNC3)cc2)cc1-c1nc2ncccc2o1 (stereo not drawn) [Example 43B.27] | 98.2% | 
24 | Nc1ncc(-c2cccc(C(=O)NCCN3CCCC3)c2)cc1-c1nc2ncccc2o1 [Example 10A.9] | 82.5% | 
25 | Nc1ncc(-c2ccc(OCCCN3CCS(=O)(=O)CC3)cc2)cc1-c1nc2ncccc2o1 [Example 43B.16] | 95.3% | 
26 | Nc1ncc(-c2ccc(CN3CCOCC3)cc2)cc1-c1nc2ccncc2o1 [Example 11A.1] | 99.6% | % Axl tyrosine kinase inhibition at 1 μM concentration (second value, †) [1]: 99.4%
27 | Nc1ncc(-c2ccc(N3CCNCC3)nc2)cc1-c1nc2ccccc2o1 [Example 2.19, 3-(1,3-Benzoxazol-2-yl)-5-[6-(piperazin-1-yl)-3-pyridyl]pyridin-2-amine] |  | inhibition at 1 µM [1]: 99.8%
28 | CN1CCCN(C(=O)c2ccc(-c3cnc(N)c(-c4nc5cccnc5o4)c3)cc2)CC1 [Example 45A.65] | 98.3% | 
29 | COc1ccc2oc(-c3cc(-c4cnn(C5CCN(C)CC5)c4)cnc3N)nc2c1 [Example 35A, 3-(5-methoxy-1,3-benzoxazol-2-yl)-5-[1-(1-methyl-4-piperidyl)pyrazol-4-yl]pyridin-2-amine] |  | inhibition at 1 µM [1]: 100%
30 | CCS(=O)(=O)c1cccc(-c2cnc(N)c(-c3nc4ccccc4o3)c2)c1 [Example 2.5] | 73.5% | 
31 | CN1CCC(Oc2ccc(-c3cnc(N)c(-c4nc5ncccc5o4)c3)cc2)CC1 [Example 43B.11] | 98.1% | 
32 | Nc1ncc(-c2cccc(C(=O)NCCN3CCCC3)c2)cc1-c1nc2cnccc2o1 [Example 8A.22] | 95.3% | 
33 | Cc1nn(C2CCNCC2)cc1-c1cnc(N)c(-c2nc3c(F)cccc3o2)c1 [Example 25A, 3-(4-fluoro-1,3-benzoxazol-2-yl)-5-[3-methyl-1-(4-piperidyl)pyrazol-4-yl]pyridin-2-amine] |  | inhibition at 1 µM [1]: 100%
34 | Nc1ncc(-c2ccc(C(=O)N3CCC(N)C3)cc2)cc1-c1nc2cccnc2o1 (stereo not drawn) [Example 45A.79] | 99.0% | 

Continued, in another order:

Row | % Axl tyrosine kinase inhibition at 1 μM concentration [1] | Structure (SMILES) | also measured
35 | 100.0% | CN1CCC(n2cc(-c3cnc(N)c(-c4nc5ccccc5o4)c3)c(CO)n2)CC1 [Example 41.19] | IC50 [1]: ~0.8 nM; IC50 ([2]; NCI H1299 cells stimulated with GAS6): ~7 nM
36 | 99.0% | CC(=O)NCCC(=O)N1CCC(n2cc(-c3cnc(N)c(-c4nc5cccnc5o4)c3)cn2)CC1 [Example 59.11] | 
37 | 96.4% | Nc1ncc(-c2cnn(CCN3CCCC3)c2)cc1-c1nc2ccccc2o1 [Example 27.3] | 
38 | 99.9% | CN1CCC(n2cc(-c3cnc(N)c(-c4nc5c(F)cc(F)cc5o4)c3)cn2)CC1 [Example 7.6] | 
39 | 100.0% | Cc1c(-c2cnc(N)c(-c3nc4ccccc4o3)c2)cnn1C1CCN(C)CC1 [Example 41.18] | 
40 | 100.0% | COCc1nn(C2CCN(C)CC2)cc1-c1cnc(N)c(-c2nc3c(C#N)cccc3o2)c1 [Example 41.39] | 
41 | 99.7% | Nc1ncc(-c2cnn(CCN3CCC[C@@H]3CO)c2)cc1-c1nc2ccccc2o1 [Example 31.8] | 
42 | 98.3% | N#CCc1ccc(-c2cnc(N)c(-c3nc4ccccc4o3)n2)cc1 [Example 20.19] | 
43 | 99.2% | CC(C)N1CCC(n2cc(-c3cnc(N)c(-c4nc5ncccc5o4)c3)cn2)CC1 [Example 53.4] | 
44 | 98.1% | CS(=O)(=O)Oc1cccc(-c2cnc(N)c(-c3nc4ccccc4o3)n2)c1 [Example 20.18] | 
45 | 99.8% | CN1CCC(n2cc(-c3cnc(N)c(-c4nc5c(C#N)cccc5o4)c3)cn2)CC1 [Example 41.25] | 
